From publication PMC12040169 (PLOS Biology, 2025)

Assay: in vitro
Conditions: human, hela cells, % viability

In order of rising viability at 28.5 h, 10 µM:
1. COc1ccccc1CCC(=O)N1CCCc2c(cnn2C)C1 [CBK284847]  80%
2. CCCC(=O)N1CCC(c2nc3ccccn3c2NC(C)(C)C)CC1 [CBK284744]  81.9%
3. COCCC(=O)NC(Cc1ccsc1)c1nc(C)c(C)s1 (stereo not shown) [CBK284774]  84.7%
4. Cc1cnc2[nH]c(C(F)(F)F)c(CN3CCOCC3)c2c1 [CBK284766]  85.7%
5. O=C1CCN(Cc2ccccc2)CCN1C(=O)C1CCCC1 [CBK284829]  85.7%
6. Cc1nc(C(Cc2ccsc2)NC(=O)c2cc[nH]n2)sc1C (stereo not shown) [CBK284776]  85.9%
7. O=C(C1CCOCC1)N1CCCC[C@H]2CN(Cc3ccccc3)C[C@H]21 [CBK284839]  86.9%
8. O=C(c1ccc(-n2ccnc2)c(-n2cccc2)c1)N1CCCCCC1 [CBK284813]  87.4%
9. O=C(Cn1cccc2cc(-c3ccc(F)cc3)nc1-2)N1CCOCC1 [CBK284809]  87.5%
10. Cc1nc(C(Cc2ccsc2)NC(=O)c2ccnn2C)sc1C (stereo not shown) [CBK284778]  87.6%
11. Cc1cc(C2CCCCCN2Cc2c(C)nn(C)c2C)no1 (stereo not shown) [CBK284846]  87.6%
12. CC(C)(C)c1cc(C(=O)N2CCn3cc(C(F)(F)F)nc3C2)[nH]n1 [CBK284748]  87.7%
13. OC1(Cn2ccc3ncccc32)CCN(Cc2cccs2)CC1 [CBK284783]  88.3%
14. O=c1c2ccccc2nc2n1CCN(Cc1c(F)cccc1F)CC2 [CBK284817]  88.7%
15. C=Cn1ncc(CN2CCCC(O)(c3ccc(F)cc3)CC2)c1C (stereo not shown) [CBK284837]  89.3%
16. CCOC(=O)[C@H]1CC[C@]2(CC1)CNC(=O)c1cc(Cl)ccc1O2 [CBK284849]  89.9%
17. Cc1cnc2[nH]c(C(F)(F)F)c(CN3CCSCC3)c2c1 [CBK284767]  90%
18. Cn1cc(NC(=O)CCn2c(C(F)F)cc3cccnc32)cn1 [CBK284740]  90.2%
19. Cc1ccc(CN2CCC3(CCCNC3=O)CC2)cc1 [CBK284822]  90.6%
20. CCn1cncc1CN1CCCC(O)(c2ccc(F)cc2)CC1 (stereo not shown) [CBK284838]  90.6%
21. Cc1cnc2[nH]c(C(C)C)c(CN3CCCOCC3)c2c1 [CBK284742]  90.7%
22. C[C@]12CN(C3CCSC3)C[C@H]1C(=O)Nc1ccccc1C(=O)N2 (stereo partly shown) [CBK284788]  90.8%
23. O=C(C1CC1)N1C[C@@H](c2ccccc2)[C@H](c2cc(C(F)F)[nH]n2)C1 [CBK284791]  91.1%
24. CN(C)CC(=O)NC(Cc1ccsc1)c1nccs1 (stereo not shown) [CBK284801]  91.4%
25. O=C(NC(Cc1cccs1)c1nccs1)C1CSCN1 (stereo not shown) [CBK284805]  91.4%
26. O=C1NCCCC12CCN(Cc1ccc3ncccc3c1)CC2 [CBK284825]  91.4%
27. Cc1cnc2[nH]c(C3CC3)c(CN3CC(C)OC(C)C3)c2c1 (stereo not shown) [CBK284741]  91.8%
28. O=c1[nH]cc(-c2ccccc2)cc1CNCC1Cc2ccccc2O1 (stereo not shown) [CBK284772]  92.3%
29. O=c1c2ccccc2nc2n1CCN(Cc1cccs1)CC2 [CBK284815]  92.3%
30. CCc1n[nH]c(C(=O)N2CCc3ncc(Cl)cc3C2)c1C [CBK284856]  92.8%
31. Cc1nc(C(Cc2ccsc2)NC(=O)C(C)(C)N)sc1C (stereo not shown) [CBK284775]  93%
32. O=C1NC2(CCCN(C(=O)c3cccs3)C2)Oc2ccccc21 (stereo not shown) [CBK284799]  93%
33. CC(=O)N1CCN(Cc2c(C(F)(F)F)[nH]c3ncc(C)cc23)CC1 [CBK284768]  93.1%
34. Cc1ccc2c(c1)c(=O)cc(C(F)(F)F)n2CCNC(=O)C1CC1 [CBK284831]  93.1%
35. OC1(Cn2ccc3ncccc32)CCN(Cc2ccccc2F)CC1 [CBK284752]  93.3%
36. O=C1NC=CCC12CCCN(S(=O)(=O)c1ccc(F)cc1)C2 (stereo not shown) [CBK284797]  93.5%
37. CC(C)NC(=O)[C@@H]1CN(C)C[C@]12CCc1ccccc1C2=O [CBK284764]  93.8%
38. CC(C)NC(=O)C1(Cc2ccccc2-c2ccncc2)CCOCC1 [CBK284786]  94.1%
39. Cc1ccc2c(c1)CN(C(=O)C1CC1C)CC1(CCN(C)CC1)O2 (stereo not shown) [CBK284833]  94.5%
40. Cc1cc(C2CCCCCN2C(=O)c2ccccc2F)on1 (stereo not shown) [CBK284842]  94.5%
41. CC1CCCCN1C(=O)c1ccc(-n2ccnc2)c(-n2cccc2)c1 (stereo not shown) [CBK284832]  95.5%
42. O=c1c2ccccc2nc2n1CCN(Cc1ccc(F)c(F)c1)CC2 [CBK284816]  96.6%
43. COc1cccc(CN2CCC3(CCCNC3=O)CC2)c1 [CBK284824]  96.6%
44. Cc1cnc2[nH]c(C3CCN(C(=O)c4scnc4C)CC3)cc2c1 [CBK284753]  96.7%
45. CN(C)CCNC(=O)Cn1c(-c2ccc(F)cc2)cc2cccnc21 [CBK284820]  97.7%
46. CC(NC(=O)c1ccc(-n2ccnc2)c(-n2cccc2)c1)c1ccco1 (stereo not shown) [CBK284808]  98%
47. Cc1occc1-c1nn(C2CCNCC2)c(=O)o1 [CBK284757]  98.5%
48. O=C(CCn1ccc2ccncc21)NCCc1c[nH]c2ccccc12 [CBK284760]  99%
49. CN1C[C@@H](C(=O)NC(C)(C)C)[C@@]2(CCc3ccccc3C(=O)N2)C1 [CBK284796]  99%
50. O=c1c2ccccc2nc2n1CCN(Cc1cc(F)ccc1F)CC2 [CBK284818]  99.1%
51. Cc1cnc2[nH]c(C(C)C)c(CN(C)C)c2c1 [CBK284758]  100%
52. OC1(Cn2cnc3ccccc32)CCN(CCc2ccccc2)CC1 [CBK284789]  100%
53. O=c1[nH]cc(-c2ccccc2)cc1CNc1ccccc1-n1ccnc1 [CBK284769]  101%
54. CCOC(=O)[C@H]1CC[C@]2(CC1)CN(C)C(=O)c1ccccc1O2 [CBK284848]  101%
55. Cc1cnc2c(c1)cc(C1CCOCC1)n2CC(=O)N(C)C [CBK284754]  102%
56. Cc1nc(C(Cc2ccsc2)NC(=O)Cn2ccnc2)sc1C (stereo not shown) [CBK284777]  102%
57. CN1C[C@@H](C(=O)N(C)C)[C@@]2(CCc3ccccc3C(=O)N2)C1 [CBK284792]  102%
58. COc1ccc(F)c(CN2CCC3(CCCNC3=O)CC2)c1 [CBK284827]  102%
59. Cc1cnc2c(c1)cc(C1CCOCC1)n2CC(=O)NC1CCCC1 [CBK284755]  103%
60. CCS(=O)(=O)N1CCC2(C=Cc3cc(F)ccc3O2)CC1 [CBK284747]  104%
61. Cc1nc(C(Cc2ccsc2)NC(=O)c2cnn(C)c2)sc1C (stereo not shown) [CBK284779]  104%
62. CC(C)(C)Nc1c(C2CCN(C(=O)C3CC3)CC2)nc2ccccn12 [CBK284787]  104%
63. Cc1cc(C2CCCCCN2C(=O)c2nn(C)cc2Cl)on1 (stereo not shown) [CBK284843]  105%
64. CC(=O)NC1(c2ccccc2)CCN(CC(O)c2ccccc2)CC1 (stereo not shown) [CBK284819]  107%
65. Cc1ccc2c(c1)C(=O)NCC1(CCN(C(=O)C3CC3)CC1)O2 [CBK284835]  108%
66. Cc1ncccc1C(=O)N1CCC(c2cc3ccccc3cn2)CC1 [CBK284854]  113%
67. Cc1nn(C)c(C)c1CCC(=O)N1CCc2ncc(Cl)cc2C1 [CBK284851]  114%
